The values below come from PMC10059066, “Probing Serum Albumins and Cyclodextrins as Binders of the Mycotoxin Metabolites Alternariol-3-Glucoside, Alternariol-9-Monomethylether-3-Glucoside, and Zearalenone-14-Glucuronide” (Metabolites, 2023).

For assay [1], the target named is T1, rat serum albumin (RSA) (Rattus norvegicus, UniProt P02770).
T1 construct: purchased Merck (Darmstadt, Germany)
Put plainly: Fluorescence quenching of rat serum albumin by mycotoxins. It counts as binding. The following applies: for RSA logKSV ± SEM (Stern–Volmer quenching constant): PBS pH 7.4, 25 °C, n = 3; for Kd: HyperQuad fitting, PBS pH 7.4, n = 3, read-out: RSA logK ± SEM (binding constant) (converted). The procedure:
Fluorescence emission spectra were collected at 25 °C using a Hitachi F-4500 fluorescence spectrophotometer (Tokyo, Japan). The quenching effects of AG, AMG, and Z14Glr (each 0–5 μM) on the emission signals of albumins (2 μM each) were examined at 340 nm in phosphate-buffered saline (PBS, pH 7.4). UV–vis measurements were performed at 25 °C in PBS, employing a Jasco V730 UV–vis spectrophotometer (Tokyo, Japan). Thereafter, we corrected the inner-filter effects of the mycotoxins, as previously reported. Stern–Volmer quenching constants (KSV; L/mol) were calculated with the graphical application of the Stern–Volmer equation [11, 29]:(1) I0/I=1+KSV×Q where I0 and I are the emission intensities of the protein without and with the quencher, respectively, while [Q] is the concentration (mol/L) of the quencher (mycotoxin). The binding constants (K; L/mol) of mycotoxin–albumin complexes were determined with nonlinear fitting, using the HyperQuad2006 software (version 3.1; Protonic Software GmbH, Hanau, Germany), as described previously.
The interaction of a ligand molecule with albumin usually induces a decrease in the emission signal of the protein [33]; therefore, fluorescence quenching studies were performed. In PBS (pH 7.4), increasing amounts of AG, AMG, and Z14Glr were added to standard concentrations of human (HSA), bovine (BSA), porcine (PSA), or rat (RSA) serum albumins, after which the emission spectra were recorded.
The KSV and K values of mycotoxin–albumin complexes were determined using the Stern–Volmer equation (Equation (1)) and the HyperQuad2006 software (see data in Table 1 and Table 2, respectively). […] The logKSV and logK values of the mycotoxin–albumin complexes were in good agreement (Table 1 and Table 2).

Assay [2] in a line: Extraction of mycotoxins from aqueous solutions with γ-cyclodextrin bead polymer. The following applies: GBP 0–10 mg/mL, mycotoxin 5 μM, sodium acetate buffer pH 5.0. On the procedure: The extraction of mycotoxins by insoluble (but water-swellable) CD bead polymers was tested in 0.05 M sodium acetate (pH 5.0) and 0.05 M sodium borate (pH 10.0) buffers. AG, AMG, alternariol, Z14Glr, and zearalenone solutions (5 μM each) were incubated with increasing amounts (0–10 mg/mL) of BBP or GBP in a thermomixer for 40 min at 1000 rpm and 25 °C. After pulse centrifugation (5000× g, 3 s), the mycotoxin contents of the supernatants were analyzed by HPLC-FLD (see Section 2.5).
The quantitative analyses of the examined mycotoxins were performed with a Jasco HPLC system (Tokyo, Japan) equipped with a binary pump (PU-4180), an autosampler (AS 4050), and a fluorescence detector (FP-920). Chromatograms were evaluated using the ChromNAV2 software (Jasco). Alternariol and zearalenone were analyzed as described previously. During the validation of our new HPLC-FLD methods, the linearity (LIN), limit of detection (LOD), limit of quantification (LOQ), and intraday repeatability (IDR) were determined as described previously.
AG and AMG were quantified using the following method: Isocratic elution of the samples (20 μL) was performed at room temperature with a 1 mL/min flow rate, employing phosphoric acid (1 mM) and acetonitrile (65:35 v/v%) as the mobile phase, where a Security Guard (C18, 4.0 × 3.0 mm; Phenomenex, Torrance, CA, US) precolumn was linked to a Kinetex EVO C18 (250 × 4.6 mm, 5 μm; Phenomenex) analytical column. Chromatograms were recorded, applying 335 nm and 455 nm excitation and emission wavelengths, respectively. […]
Z14Glr was quantified using the following method: Isocratic elution of the samples (20 μL) was performed at room temperature with a 1 mL/min flow rate, employing 1% acetic acid solution and acetonitrile (65:35 v/v%) as the mobile phase, where a Security Guard (C8, 4.0 × 3.0 mm; Phenomenex) precolumn was linked to a Mediterranea See8 (C8, 150 × 4.6 mm, 5 μm; Teknokroma, Barcelona, Spain) analytical column. Chromatograms were recorded, applying 315 nm and 465 nm excitation and emission wavelengths, respectively. […]

Assay [3] is described as follows: Fluorescence spectroscopic study of mycotoxin-SGD complex formation. The following applies: for SGD logK ± SEM (binding constant): Benesi–Hildebrand, 0.05 M sodium acetate pH 5.0, mycotoxin 1 μM, n = 3; for SGD-induced increase in the emission signal of the mycotoxin: SGD 0–5 mM, mycotoxin 1 μM, sodium acetate pH 5.0. The class given is binding. On the procedure:
The impacts of SBECD (0–10 mM) and SGD (0–5 mM) on the emission signals of mycotoxins (1 μM each) were tested in sodium acetate buffer (0.05 M, pH 5.0). Mycotoxin–CD interactions were evaluated using the Benesi–Hildebrand equation [11, 31], assuming 1:1 stoichiometry of complex formation:(2) F0/F−F0=1/A+1/A×K×[CD] where K (L/mol) is the binding constant, F0 is the emission signal of the mycotoxin without the host molecules, F is the emission signal of the mycotoxin with CDs, A is a constant, and [CD] is the molar concentration (mol/L) of the host molecules.
Therefore, CD-induced elevation in the fluorescence emission intensities of mycotoxins was examined.
Based on the emission signals at 455 nm, the binding constants of ligand–CD complexes were calculated using the Benesi–Hildebrand equation (Equation (2)). Background corrections were performed in each experiment. […] Glucose and glucuronic acid are bulky, hydrophilic molecules; therefore, it is reasonable to hypothesize that these substituents make the inclusion of AG, AMG, and Z14Glr by the apolar CD cavity difficult.

T1 sequence (P02770 25-608): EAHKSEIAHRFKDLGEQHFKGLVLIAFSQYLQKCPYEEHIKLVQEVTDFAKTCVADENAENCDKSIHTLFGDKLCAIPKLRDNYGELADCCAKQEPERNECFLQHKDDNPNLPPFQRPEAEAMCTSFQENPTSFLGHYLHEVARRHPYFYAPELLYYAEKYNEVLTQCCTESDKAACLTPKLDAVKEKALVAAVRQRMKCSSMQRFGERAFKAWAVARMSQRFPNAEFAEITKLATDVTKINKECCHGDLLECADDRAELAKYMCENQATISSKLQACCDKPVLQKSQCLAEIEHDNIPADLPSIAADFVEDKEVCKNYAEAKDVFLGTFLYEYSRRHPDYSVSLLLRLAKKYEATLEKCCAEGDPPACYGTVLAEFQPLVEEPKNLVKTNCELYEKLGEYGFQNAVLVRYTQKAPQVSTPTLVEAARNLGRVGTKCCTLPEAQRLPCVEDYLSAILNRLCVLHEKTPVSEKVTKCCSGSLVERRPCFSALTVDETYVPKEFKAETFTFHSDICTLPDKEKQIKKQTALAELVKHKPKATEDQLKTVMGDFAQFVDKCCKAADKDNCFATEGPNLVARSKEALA

With `COc1cc(O)c2c(=O)oc3cc(OC4O[C@H](CO)[C@@H](O)[C@H](O)[C@H]4O)cc(C)c3c2c1` (stereo partly shown) [AMG, alternariol-9-monomethylether-3-glucoside], the “RSA logKSV ± SEM (Stern–Volmer quenching constant)” value (“RSA logKSV ± SEM” below) in assay [1] (albumin 2 μM, mycotoxin 0–5 μM) stood at 4.62 ± 0.02 L/mol. For the same molecule, the Kd in assay [1] (fluorescence quenching) was 22.4 µM. Moreover, the “removal of mycotoxin by GBP” value in assay [2] is given as “strongly reduced”. Moreover, in assay [3], the “SGD logK ± SEM (binding constant)” value is 3.45 ± 0.04 L/mol and the “SGD-induced increase in the emission signal of the mycotoxin” value (“SGD-induced increase” below) was “approximately sevenfold increase”.
On to `C[C@H]1CCCC(=O)CCC/C=C/c2cc(O[C@@H]3OC(C(=O)O)[C@@H](O)C(O)C3O)cc(O)c2C(=O)O1` (stereo partly drawn) [Z14Glr, zearalenone-14-β,D-glucuronide], for which the “RSA logKSV ± SEM” value in assay [1] (albumin 2 μM, mycotoxin 0–5 μM) was found to be 4.65 ± 0.05 L/mol. The Kd in assay [1] (fluorescence quenching) is 19.5 µM. In addition, the “binding constant K of Z14Glr-RSA complex” value in assay [1] (fluorescence quenching, PBS pH 7.4) is recorded as “≈ 5 × 10^4 L/mol”. For the same molecule, the “effect on fluorescence emission intensity of RSA” value in assay [1] (mycotoxin 0–5 μM, albumin 2 μM, PBS pH 7.4) is “considerably decreased”. Besides, the “removal of mycotoxin by GBP” value in assay [2] is reported as “only moderate removal”. Moreover, the “SGD-induced increase” value in assay [3] is reported as “fivefold”.
For the molecule `Cc1cc(OC2O[C@H](CO)[C@@H](O)[C@H](O)[C@H]2O)cc2oc(=O)c3c(O)cc(O)cc3c12` (stereo partly shown) [AG, alternariol-3-glucoside], the “RSA logKSV ± SEM” value in assay [1] (albumin 2 μM, mycotoxin 0–5 μM) was 4.49 ± 0.03 L/mol. Moreover, the Kd in assay [1] (fluorescence quenching) is 29.5 µM. In addition, the “removal of mycotoxin by GBP” value in assay [2] was “strongly reduced”. For the same molecule, in assay [3], the “SGD logK ± SEM (binding constant)” value was found to be 3.19 ± 0.08 L/mol and the “SGD-induced increase” value is on record as “approximately sevenfold increase”.
